The target in test [1] is T1, PtxD (Stutzerimonas stutzeri, UniProt O69054).
T1 sequence (O69054 1-336): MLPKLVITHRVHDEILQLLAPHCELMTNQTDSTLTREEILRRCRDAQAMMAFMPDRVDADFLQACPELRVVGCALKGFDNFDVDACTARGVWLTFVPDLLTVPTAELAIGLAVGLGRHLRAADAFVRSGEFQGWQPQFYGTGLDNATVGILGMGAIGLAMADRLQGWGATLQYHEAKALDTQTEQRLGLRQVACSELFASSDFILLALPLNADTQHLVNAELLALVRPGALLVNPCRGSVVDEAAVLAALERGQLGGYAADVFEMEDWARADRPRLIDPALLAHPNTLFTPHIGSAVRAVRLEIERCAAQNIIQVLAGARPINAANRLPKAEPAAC
Format: biochemical, Pseudomonas stutzeri WM88. More on the design: made in house.

Test [2] addresses T1, PtxD. Type of test: biochemical, Pseudomonas stutzeri WM88. The arrangement: made in house. This is another data set of the same source.
The target of test [3] is T1, PtxD. Type of test: biochemical, Pseudomonas stutzeri WM88. The arrangement: made in house. This is another data set of the same source.
Test [4] concerns the target T1, PtxD. Type of test: biochemical, Pseudomonas stutzeri WM88. More on the design: made in house. This is another data set of the same source.
The test system of test [5] is PtxD/HLADH. Format: biochemical.
Test [6] concerns the target PtxD (Stutzerimonas stutzeri, UniProt O69054). Format: biochemical.
Test [7] deals with PtxD/LLDH (Stutzerimonas stutzeri, UniProt O69054). Type of test: biochemical.
In test [8] the target is FDH. As to conditions: read-out: Ki, inhibition of FDH; cited from earlier work.
The target of test [9] is T1, PtxD. Briefly: Initial rate studies of PtxD in the presence of products (NADH, phosphate) and dead end inhibitor sulfite. Format: biochemical, Pseudomonas stutzeri WM88. More on the design: made in house.
For test [10], the target named is T1, PtxD. Briefly: Initial rate studies of PtxD with NAD and phosphite, kinetic model fitting.

Results on 21 compounds are retold here after patent US20040091985A1, “NAD phosphite oxidoreductase, a novel catalyst from bacteria for regeneration of NAD(P)H” (priority 2002, published 2004).

Several values for one entry are separate records, joined by “and”; a condition that tells them apart may be missing. Equal values may be shown once. Entries after “also recorded” stand apart in the source; their conditions may differ.

On to `CC(C)CC(O)C(=O)O` (racemic) [DL-Hydroxyisocaproate], for which the “inhibitory activity on PtxD, in words” value in [1] is given as “moderately inhibited”.
Same read-out and setting: the entry for `Nc1ncnc2c1ncn2[C@@H]1O[C@H](COP(=O)(O)OP(=O)(O)OC[C@H]2OC(O)[C@H](O)[C@@H]2O)[C@@H](O)[C@H]1O` (stereo partly shown) [ADPR, ADP-ribose] is “weak enzyme inhibitors”; for `Nc1ncnc2c1ncn2[C@@H]1O[C@H](COP(=O)(O)OP(=O)(O)O)[C@@H](O)[C@H]1O` [ADP] it is “weak enzyme inhibitors”.
Same read-out and setting: the entry for `Nc1ncnc2c1ncn2[C@@H]1O[C@H](COP(=O)(O)O)[C@@H](O)[C@H]1O` [AMP] is “does not inhibit”.
On the same count and under the same terms, under `Nc1ncnc2c1ncn2[C@@H]1O[C@H](COP(=O)(O)OP(=O)(O)OP(=O)(O)O)[C@@H](O)[C@H]1O` [ATP] stands “weak enzyme inhibitors”.
Take `NCCP(=O)(O)O` [Aminoethylphosphonate]: in [2], the “reduction of potential substrate by PtxD with NADH (reverse direction)” value (“reduction of potential substrate by PtxD” for short) was “unable to catalyze the reduction”.
Consider `O=C(O)[C@H](O)CO` [D-Glycerate], for which the “inhibitory activity on PtxD, in words” value in test [1] is “moderately inhibited”.
As to `O=C(O)CN(CCN(CC(=O)O)CC(=O)O)CC(=O)O` [EDTA], the “effect on enzyme activity” value in [3] is reported as “no effect”.
Regarding `O=C(O)CN(CCOCCOCCN(CC(=O)O)CC(=O)O)CC(=O)O` [EGTA], the “effect on enzyme activity” value in test [3] was “no effect”.
Consider `NC(=O)c1ccc[n+]([C@@H]2O[C@H](COP(=O)([O-])OP(=O)(O)OC[C@H]3O[C@@H](n4cnc5c(N)ncnc54)[C@H](OP(=O)(O)O)[C@@H]3O)[C@@H](O)[C@H]2O)c1` [NADP], for which, in test [1], the “inhibitory activity on PtxD, in words” value is on record as “weak enzyme inhibitors”. For the same compound, in [4], the “Activity, cofactors” value is 3.4% and 7.1% and 0.4% and 1.1%; the “ability to substitute for NAD” value is “able to substitute for NAD; also recorded: can substitute for NAD”.
Regarding `NC(=O)c1ccc[n+]([C@@H]2O[C@H](COP(=O)([O-])OP(=O)(O)OC[C@H]3O[C@@H](n4cnc5c(N)ncnc54)[C@H](O)[C@@H]3O)[C@@H](O)[C@H]2O)c1` [NAD], the “TN (NAD^+)” value in test [5] was 123; in test [7], 12. Also, the “TTN (NAD^+)” value in test [5] and in [7] was 2000 each time. Further, in test [4], the “Activity, cofactors” value is on record as 100.00%. Moreover, the “total turnover numbers of NAD^+” value in test [6] was “up to 2000”. In addition, the Ki (usually the equilibrium dissociation constant of an inhibitor or competing ligand from its target) in test [8] was 150 µM; in [9] (Ki, inhibition of PtxD) it was 223 µM.
The compound `[Cl-].[Na+]` [NaCl] displayed an activity left in [3] of 37%.
Take `O=NO` [Nitrite]: in test [1], the “inhibitory activity on PtxD, in words” value is “moderately inhibited”.
Turning to `O=S(O)O` [Sulfite], the “inhibitory activity on PtxD, in words” value in test [1] is recorded as “strong inhibitor”. Moreover, the Ki is 4.97 µM and 1.15 µM in [9] (Kii); 10.8 ± 0.1 µM in test [9] (Kis with respect to NAD); 16.1 ± 0.1 µM in test [9] (Kis with respect to phosphite).
As for `O=C(O)O` [bicarbonate], the “reduction of potential substrate by PtxD” value in test [2] was “unable to catalyze the reduction”.
The same measure, in the same setting: the entry for `O=C(O)C(O)CO` (stereo not shown) [glycerate] is “unable to catalyze the reduction”.
As for `O=C(O)C(=O)CO` [hydroxypyruvate], the “reduction of substrate by PtxD with NADH” value in test [2] was 0.14 units/mg.
Consider Arsenite, for which the “inhibitory activity on PtxD, in words” value in [1] was “moderately inhibited”.
As for NADH, in test [9], the “type of inhibition of PtxD” value was “competitive inhibitor”.
With Phosphite, the Km (as a rule, the substrate concentration at which the rate is half of its maximum) in test [10] is 53.1 µM and ~50 µM. Moreover, the “Activity, substrates” value in test [4] was 100.00%.
On to arsenate, for which the “reduction of potential substrate by PtxD” value in [2] was “unable to catalyze the reduction”.
